# Test results reported in paper PMC12155096 (International Journal of Molecular Sciences, 2025).
# Experiments:
# [1] = target: T1, human CYP1A2 (Homo sapiens, UniProt P05177)
# T1 sequence (P05177 1-516): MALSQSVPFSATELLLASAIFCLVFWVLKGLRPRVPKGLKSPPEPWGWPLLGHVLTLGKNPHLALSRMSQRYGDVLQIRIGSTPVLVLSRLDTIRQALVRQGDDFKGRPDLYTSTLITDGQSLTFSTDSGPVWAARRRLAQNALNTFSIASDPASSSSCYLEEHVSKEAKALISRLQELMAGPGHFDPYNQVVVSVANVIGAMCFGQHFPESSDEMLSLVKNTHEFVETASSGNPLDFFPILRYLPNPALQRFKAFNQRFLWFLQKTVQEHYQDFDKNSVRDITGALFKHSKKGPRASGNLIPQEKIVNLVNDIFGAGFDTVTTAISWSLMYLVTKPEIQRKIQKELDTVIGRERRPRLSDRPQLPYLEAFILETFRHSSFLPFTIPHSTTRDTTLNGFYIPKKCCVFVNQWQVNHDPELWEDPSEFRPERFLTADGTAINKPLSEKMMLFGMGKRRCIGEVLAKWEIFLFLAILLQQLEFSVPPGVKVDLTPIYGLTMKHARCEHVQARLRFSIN
# [2] = target: human CYP2C9 (Homo sapiens, UniProt P11712)
# [3] = target: human CYP2C19 (Homo sapiens, UniProt P33261)
# [4] = target: human CYP2D6 (Homo sapiens, UniProt P10635)
# [5] = target: CYP3A4 (Homo sapiens, UniProt P08684)
# Sequence of CYP3A4 (P08684 whole entry): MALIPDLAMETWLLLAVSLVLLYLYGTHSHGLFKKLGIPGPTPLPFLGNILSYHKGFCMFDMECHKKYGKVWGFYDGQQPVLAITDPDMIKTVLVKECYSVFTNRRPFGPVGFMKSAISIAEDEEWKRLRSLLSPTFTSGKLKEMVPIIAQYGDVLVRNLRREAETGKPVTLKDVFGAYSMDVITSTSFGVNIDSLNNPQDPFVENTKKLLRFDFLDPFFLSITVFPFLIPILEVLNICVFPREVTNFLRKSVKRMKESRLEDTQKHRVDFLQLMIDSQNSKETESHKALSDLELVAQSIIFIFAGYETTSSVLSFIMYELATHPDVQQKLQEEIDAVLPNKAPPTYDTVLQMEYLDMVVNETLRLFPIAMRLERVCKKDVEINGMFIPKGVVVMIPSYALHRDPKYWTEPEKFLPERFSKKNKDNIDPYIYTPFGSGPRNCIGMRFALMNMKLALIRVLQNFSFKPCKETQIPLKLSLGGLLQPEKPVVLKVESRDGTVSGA
# Sequence of human CYP2C9 (P11712 whole entry): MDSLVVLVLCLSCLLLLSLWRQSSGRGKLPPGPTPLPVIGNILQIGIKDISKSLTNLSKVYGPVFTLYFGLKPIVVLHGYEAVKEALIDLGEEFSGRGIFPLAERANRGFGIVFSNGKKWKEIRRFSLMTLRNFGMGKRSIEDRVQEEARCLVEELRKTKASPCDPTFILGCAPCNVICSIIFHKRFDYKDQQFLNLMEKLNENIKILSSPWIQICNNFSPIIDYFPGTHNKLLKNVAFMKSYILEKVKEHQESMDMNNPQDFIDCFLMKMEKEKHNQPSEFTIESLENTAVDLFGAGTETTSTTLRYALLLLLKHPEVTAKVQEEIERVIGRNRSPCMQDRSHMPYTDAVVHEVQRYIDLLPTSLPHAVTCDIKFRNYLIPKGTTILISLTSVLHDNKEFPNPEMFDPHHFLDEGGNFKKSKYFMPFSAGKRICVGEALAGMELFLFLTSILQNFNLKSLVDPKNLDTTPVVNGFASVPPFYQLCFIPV
# Sequence of human CYP2D6 (P10635 whole entry): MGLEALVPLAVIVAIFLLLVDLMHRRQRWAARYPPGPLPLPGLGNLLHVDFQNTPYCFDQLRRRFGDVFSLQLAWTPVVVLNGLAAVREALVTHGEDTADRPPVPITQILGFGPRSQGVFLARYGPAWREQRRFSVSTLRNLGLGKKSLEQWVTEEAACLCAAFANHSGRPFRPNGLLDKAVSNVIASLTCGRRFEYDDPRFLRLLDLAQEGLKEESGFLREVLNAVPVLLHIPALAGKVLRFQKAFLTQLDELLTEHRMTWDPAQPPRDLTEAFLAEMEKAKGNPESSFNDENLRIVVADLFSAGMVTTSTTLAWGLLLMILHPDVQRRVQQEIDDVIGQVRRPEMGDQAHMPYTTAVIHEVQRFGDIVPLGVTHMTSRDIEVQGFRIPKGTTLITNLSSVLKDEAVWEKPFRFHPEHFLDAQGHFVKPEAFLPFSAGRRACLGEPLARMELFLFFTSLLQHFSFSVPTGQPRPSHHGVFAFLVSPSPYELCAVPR
# Sequence of human CYP2C19 (P33261 whole entry): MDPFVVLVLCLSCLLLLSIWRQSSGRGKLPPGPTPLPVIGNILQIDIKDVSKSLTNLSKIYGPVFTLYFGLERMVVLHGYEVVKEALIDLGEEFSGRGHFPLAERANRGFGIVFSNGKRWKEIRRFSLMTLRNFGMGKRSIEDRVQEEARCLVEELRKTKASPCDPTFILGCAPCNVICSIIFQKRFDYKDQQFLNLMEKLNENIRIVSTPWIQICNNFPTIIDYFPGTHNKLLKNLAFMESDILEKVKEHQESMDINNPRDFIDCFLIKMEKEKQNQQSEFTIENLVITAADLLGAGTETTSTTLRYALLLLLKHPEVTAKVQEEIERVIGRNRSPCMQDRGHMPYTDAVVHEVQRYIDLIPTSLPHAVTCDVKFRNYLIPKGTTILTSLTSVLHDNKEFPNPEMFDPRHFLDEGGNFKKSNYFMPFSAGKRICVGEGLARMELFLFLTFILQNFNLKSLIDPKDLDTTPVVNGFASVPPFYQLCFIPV
Compound,AC50 [1] [µM],AC50 [2] [µM],AC50 [3] [µM],AC50 [4] [µM],AC50 [5] [µM],CYP1A2 AC50 (half-maximal activity concentration) [1],CYP2C19 AC50 (half-maximal activity concentration) [3],CYP2D6 AC50 (half-maximal activity concentration) [4],CYP3A4 AC50 (half-maximal activity concentration) [5],CYP2C9 AC50 (half-maximal activity concentration) [2]
O=C(Oc1ccccc1)c1cccc(C(=O)Oc2ccccc2)c1 [Diphenyl isophthalate],36.1,9.46,9.89,36.5,20.9,–,–,–,–,–
CC(=O)O[C@@H]1C[C@H]2[C@@H]3CCc4cc(OC(=O)c5ccccc5)ccc4[C@H]3CC[C@]2(C)[C@H]1OC(C)=O [Estriol benzoate diacetate],–,22.8,–,–,3.74,Inactive,Inactive,Inactive,–,–
CCC(=O)Oc1ccc2c(c1)CC[C@@H]1[C@@H]2CC[C@@]2(C)[C@H]1C[C@@H](OC(=O)CC)[C@@H]2OC(=O)CC [Estriol tripropionate],–,19.8,29.9,–,4.92,Inconclusive inhibitor,–,Inconclusive inhibitor,–,–
"CCOC(=O)C(C#N)=C(c1ccccc1)c1ccccc1 [Ethyl 2-cyano-3,3-diphenylacrylate]",1.87,3.75,4.01,–,7.23,–,–,Inconclusive inhibitor,–,–
CCOC(=O)c1ccc(O)c(O)c1 [Ethyl protocatechuate],27.2,32.2,–,–,–,–,Inactive,Inactive,Inactive,–
C[C@]12CC[C@H]3[C@@H](CCC4=CC(=O)CC[C@@]43C)[C@@H]1CC[C@@H]2C(=O)O [Etienic acid],–,21.2,–,–,20.8,Inactive,Inactive,Inactive,–,–
CN1CCC(Nc2ncc3ncnc(Nc4ccc(F)c(Cl)c4)c3n2)CC1.Cl.Cl [Falnidamol dihydrochloride],–,–,–,18.4,14.4,Inactive,Inactive,–,–,Inactive
O=C(NCc1ncc(C(F)(F)F)cc1Cl)c1c(Cl)cccc1Cl [Fluopicolide],33,4.13,18.6,6.57,12.6,–,–,–,–,–
C/C=C1/C(=O)C[C@H]2[C@@H]3CCC4=CC(=O)CC[C@]4(C)[C@H]3CC[C@]12C [Guggulsterone E],–,19.6,4.67,–,1.82,Inconclusive inhibitor,–,Inactive,–,–
C/C=C1\C(=O)C[C@H]2[C@@H]3CCC4=CC(=O)CC[C@]4(C)[C@H]3CC[C@]12C [Guggulsterone Z],–,24.8,6.83,–,3.8,Inactive,–,Inactive,–,–
"O=C(OCCCCCCOC(=O)c1ccccc1)c1ccccc1 [Hexane-1,6-diyl dibenzoate]",3.43,10.6,83.2,–,24,–,–,Inactive,–,–
Cl.Nc1c2c(nc3c1CCC3)CCCC2.O [Ipidacrine hydrochloride hydrate],–,–,–,10.7,14.9,Inconclusive inhibitor,Inactive,–,–,Inactive
CC(C)COC(=O)C=Cc1ccccc1 [Isobutyl 3-phenylacrylate],17,44,80,–,22.8,–,–,Inactive,–,–
CCOC(=O)C1=NOC(c2ccccc2)(c2ccccc2)C1 [Isoxadifen-ethyl],–,8.36,21.6,–,34.3,Inconclusive inhibitor,–,Inconclusive activator,–,–
COCC(=O)N(c1c(C)cccc1C)[C@H](C)C(=O)OC [Metalaxyl-M],47.7,–,–,–,47.7,–,Inconclusive inhibitor,Inactive,–,Inactive
COC(=O)Cc1cccc2ccccc12 [Methyl 1-naphthaleneacetate],18.8,41.9,63.5,–,27.5,–,–,Inactive,–,–
